Assay results: BindingDB's records for doi:10.1021/jm0492958 (Abbott Laboratories, 2005)
pEC50: −log10 of the molar value.

Biological target: Transient receptor potential cation channel subfamily V member 1 (Rattus norvegicus, UniProt O35433)
Experiment: Ca2+ Influx Functional Assay for the Determination of in Vitro Activity.
Conditions: pH 7.4; 22 °C
Experimental: (§1) The functional antagonist activity of compounds at the TRPV1 receptor was determined with a Ca2+ influx assay by measuring the effect on capsaicin (0.05 uM) evoked increase in intracellular Ca2+ levels using cells stably expressing recombinant human TRPV1. All compounds were tested over an 11-point half-log concentration range. The fluorescent Ca2+ chelating dye fluo-4 was used as an indicator of the relative levels of Ca2+ in a 96-well format using a fluorescence imaging plate reader. Fluorescence readings were made at 1-5 s intervals over the 240 s course of the experimental run. The peak increase in relative fluorescence units was calculated and expressed as a percentage of the 0.05 uM capsaicin (control) response. Curve fits of the data were solved using a four-parameter logistic Hill equation in GraphPad Prism, and IC50 values were calculated.

Chain of Transient receptor potential cation channel subfamily V member 1 (Rattus norvegicus, UniProt O35433) (O35433 whole entry): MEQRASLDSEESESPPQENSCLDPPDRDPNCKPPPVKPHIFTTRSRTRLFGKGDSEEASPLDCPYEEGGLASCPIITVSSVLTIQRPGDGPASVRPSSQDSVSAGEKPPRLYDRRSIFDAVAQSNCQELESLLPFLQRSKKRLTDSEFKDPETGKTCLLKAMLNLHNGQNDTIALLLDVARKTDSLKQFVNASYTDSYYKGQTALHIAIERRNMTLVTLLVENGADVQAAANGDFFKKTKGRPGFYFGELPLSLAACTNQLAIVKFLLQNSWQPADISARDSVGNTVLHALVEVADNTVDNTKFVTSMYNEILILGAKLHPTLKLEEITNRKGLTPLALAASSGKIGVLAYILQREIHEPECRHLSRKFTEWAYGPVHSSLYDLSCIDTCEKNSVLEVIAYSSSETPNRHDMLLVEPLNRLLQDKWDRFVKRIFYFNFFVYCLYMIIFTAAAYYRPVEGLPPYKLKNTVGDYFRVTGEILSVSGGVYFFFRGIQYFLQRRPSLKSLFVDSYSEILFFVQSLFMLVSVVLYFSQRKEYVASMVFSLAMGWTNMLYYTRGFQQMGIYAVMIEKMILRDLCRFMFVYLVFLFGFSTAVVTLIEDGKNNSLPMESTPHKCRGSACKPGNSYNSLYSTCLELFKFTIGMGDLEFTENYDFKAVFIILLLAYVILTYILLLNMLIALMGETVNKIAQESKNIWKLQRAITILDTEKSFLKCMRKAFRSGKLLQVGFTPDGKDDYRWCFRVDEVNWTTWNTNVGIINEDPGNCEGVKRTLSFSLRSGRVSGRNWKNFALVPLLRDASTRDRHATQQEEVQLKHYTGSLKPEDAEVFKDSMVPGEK

Row | pEC50 | Compound
1 | 7.62 | O=C(NCc1ccc(C(F)(F)F)cc1)Nc1cccc2cnccc12 [1-isoquinolin-5-yl-3-{[4-(trifluoromethyl)phenyl]methyl}urea]

Biological target: Transient receptor potential cation channel subfamily V member 1 (Homo sapiens, UniProt Q8NER1)
Experiment: as above
Conditions: pH 7.4; 22 °C
Experimental: as §1

Chain of Transient receptor potential cation channel subfamily V member 1 (Homo sapiens, UniProt Q8NER1) (Q8NER1 whole entry): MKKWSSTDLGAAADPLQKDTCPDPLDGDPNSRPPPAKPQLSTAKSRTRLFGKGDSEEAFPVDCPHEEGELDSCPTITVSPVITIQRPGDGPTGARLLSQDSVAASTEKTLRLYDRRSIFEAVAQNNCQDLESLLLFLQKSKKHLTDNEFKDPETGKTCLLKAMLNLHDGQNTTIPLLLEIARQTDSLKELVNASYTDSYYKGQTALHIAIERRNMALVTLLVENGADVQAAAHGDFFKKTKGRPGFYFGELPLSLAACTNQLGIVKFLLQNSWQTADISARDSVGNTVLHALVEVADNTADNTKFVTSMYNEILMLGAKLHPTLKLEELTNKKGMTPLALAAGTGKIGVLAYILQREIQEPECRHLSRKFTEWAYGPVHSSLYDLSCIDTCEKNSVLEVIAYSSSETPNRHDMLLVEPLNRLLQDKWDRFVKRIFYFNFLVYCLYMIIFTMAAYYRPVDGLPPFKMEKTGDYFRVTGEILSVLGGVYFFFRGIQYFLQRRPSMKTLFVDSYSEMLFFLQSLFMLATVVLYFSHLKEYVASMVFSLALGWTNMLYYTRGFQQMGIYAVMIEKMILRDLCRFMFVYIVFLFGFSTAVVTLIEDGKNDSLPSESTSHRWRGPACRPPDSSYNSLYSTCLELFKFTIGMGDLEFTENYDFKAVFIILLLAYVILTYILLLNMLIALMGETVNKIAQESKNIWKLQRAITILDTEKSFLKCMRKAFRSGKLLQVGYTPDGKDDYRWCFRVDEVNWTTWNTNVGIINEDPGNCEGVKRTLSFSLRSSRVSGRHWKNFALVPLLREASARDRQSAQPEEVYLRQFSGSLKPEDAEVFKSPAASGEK

Row | Compound | pEC50
2 | O=C(NCCc1ccc(C(F)(F)F)cc1)Nc1cccc2cnccc12 | 7.72
3 | CSc1cccc(NC(=O)Nc2cccc3ccc(O)cc23)c1 [3-(7-hydroxynaphthalen-1-yl)-1-[3-(methylsulfanyl)phenyl]urea] | 7.66
4 | O=C(NCCc1cccc(C(F)(F)F)c1)Nc1cccc2cnccc12 | 7.70

The remaining compounds from weak to strong by pEC50, led by results:

Row | pEC50 | Compound
5 | 7.29 | O=C(NCc1cccc(C(F)(F)F)c1)Nc1cccc2cnccc12 [3-isoquinolin-5-yl-1-{[3-(trifluoromethyl)phenyl]methyl}urea]
6 | 8.40 | O=C(NCc1ccc(C(F)(F)F)cc1)Nc1cccc2cnccc12 [1-isoquinolin-5-yl-3-{[4-(trifluoromethyl)phenyl]methyl}urea]
